# Test results from paper PMC10597649, “Effect of Astragali radix extract on pharmacokinetic behavior of dapagliflozin in healthy and type 2 diabetic rats” (Frontiers in Pharmacology, 2023).
# Like-named read-outs stand apart in the source and are kept apart here.
# What was measured:
# [1] = for Accuracy (RE, %): rat plasma, n = 6
# Description: Stability of DAPA in rat plasma was evaluated by analyzing six replicates of QC samples at low and high concentrations under different conditions. Short-term stability was investigated by keeping the samples at room temperature (25°C) for 12 h and autosampler (4°C) for 24 h, respectively. Freeze-thaw stability was investigated by three freeze-thawing cycles, i.e., the samples were frozen for 7 d at -80°C and thawed 3 h at room temperature for each cycle. Long-term stability was investigated by keeping the samples at -80°C for 1 month.
# [2] = Pharmacokinetics of DAPA in healthy rats (alone or co-administered with ARE), plasma by UPLC-MS/MS; assay type: in vivo, Sprague Dawley (SD) rats; conditions: for MRT last: read-out: MRT(0-t)
# Description: The column temperature was maintained at 40°C. […] The sample injection volume was 2 μL. […] The ion spray voltage was set at […]. […] The source temperature was kept at 200°C. The collision gas was set at low flow rate. […] The samples were processed by the procedure described above.
# [3] = ref Kasichayanula et al., 2011, cited from earlier work
# [4] = CD group: healthy rats, DAPA alone, single intragastric dose 1.05 mg/kg, n = 6, mean ± SD
# [5] = CDA group compared to CD group (healthy rats, with ARE versus DAPA alone)
# [6] = CDA group: healthy rats, ARE 300 mg/kg intragastric once a day for 7 days + DAPA single dose 1.05 mg/kg on day 7, n = 6, mean ± SD
# [7] = CDA-H group: healthy rats, ARE 900 mg/kg once a day for 7 days + DAPA single dose 1.05 mg/kg on day 7, n=6, mean ± SD
# [8] = CDA-L group: healthy rats, ARE 300 mg/kg once a day for 7 days + DAPA single dose 1.05 mg/kg on day 7, n=6, mean ± SD
# [9] = male, Sprague-Dawley, rat, plasma, po, 1.05 mg/kg, CD group: healthy rats, DAPA alone, single intragastric dose 1.05 mg/kg, n = 6, mean ± SD
# [10] = male, Sprague-Dawley, rat, plasma, po, 1.05 mg/kg, CDA-H group: healthy rats, ARE 900 mg/kg once a day for 7 days + DAPA single dose 1.05 mg/kg on day 7, n=6, mean ± SD
# [11] = male, Sprague-Dawley, rat, plasma, po, 1.05 mg/kg, CDA-L group: healthy rats, ARE 300 mg/kg once a day for 7 days + DAPA single dose 1.05 mg/kg on day 7, n=6, mean ± SD
# [12] = male, Sprague-Dawley, rat, plasma, po, CDA group: healthy rats, ARE 300 mg/kg intragastric once a day for 7 days + DAPA single dose 1.05 mg/kg on day 7, n = 6, mean ± SD
compound,measurement,setting,value
"CCOc1ccc(Cc2cc([C@@H]3O[C@H](CO)[C@@H](O)[C@H](O)[C@H]3O)ccc2Cl)cc1 [DAPA, Dapagliflozin]","Accuracy (RE, %)","[1]; freeze thaw (3 cycles, 7 d at -80°C, thawed 3 h at room temperature), 33.5 ng/mL",-4.72%
same,"Accuracy (RE, %)","[1]; freeze thaw (3 cycles, 7 d at -80°C, thawed 3 h at room temperature), 975 ng/mL",-3.71%
same,"Accuracy (RE, %)","[1]; long term (-80°C, 30d), 33.5 ng/mL",-2.96%
same,"Accuracy (RE, %)","[1]; long term (-80°C, 30d), 975 ng/mL",-2.97%
same,"Accuracy (RE, %)","[1]; refrigerator (4°C, 24 h), 33.5 ng/mL",-1.37%
same,"Accuracy (RE, %)","[1]; refrigerator (4°C, 24 h), 975 ng/mL",-2.63%
same,"Accuracy (RE, %)","[1]; room temperature (25°C, 12 h), 33.5 ng/mL",-1.19%
same,"Accuracy (RE, %)","[1]; room temperature (25°C, 12 h), 975 ng/mL",-2.87%
same,Stability in the rat plasma,"[1]; room temperature (25°C) for 12 h, 4°C for 24 h, -80°C for 30 days, three freeze-thaw cycles",stable
same,AUC(0-inf),[2]; [4],3868.26±344.05 h*(ng/mL)
same,AUC(0-t),[2]; [4],3810.20±343.81 h*(ng/mL)
same,CL,[2]; [4],273.31±25.26 (mL/h)/kg
same,V,[2]; [4],1.42595 ± 0.16328 L/kg
same,decrease of MRT,[2]; [5],25.11%
same,decrease of t max,[2]; [5],55.91%
same,increase of C max,[2]; [5],30.99%
same,AUC(0-inf),[2]; [6],3845.72±851.15 h*(ng/mL)
same,AUC(0-t),[2]; [6],3783.24±852.77 h*(ng/mL)
same,C max,[2]; [6],504.33 ± 99.44 ng/mL
same,CL,[2]; [6],283.83±58.84 (mL/h)/kg
same,V,[2]; [6],1.5704 ± 0.40141 L/kg
same,AUC(0-inf),[2]; [7],3946.77±756.89 h*(ng/mL)
same,AUC(0-t),[2]; [7],3868.01±745.36 h*(ng/mL)
same,CL,[2]; [7],273.49±46.98 (mL/h)/kg
same,V,[2]; [7],1.55445 ± 0.21969 L/kg
same,AUC(0-inf),[2]; [8],3845.72±851.15 h*(ng/mL)
same,AUC(0-t),[2]; [8],3783.24±852.77 h*(ng/mL)
same,CL,[2]; [8],283.83±58.84 (mL/h)/kg
same,Cmax,[2]; [8],504.33 ± 99.44 ng/mL
same,V,[2]; [8],1.5704 ± 0.40141 L/kg
same,"difference of t 1/2, AUC(0-t), AUC(0-inf), V and CL",[2]; between the CD group and the CDA group (healthy rats),no significant difference
same,Tmax,[2]; [9],5.67 ± 0.82 h
same,half-life,[2]; [9],3.61 ± 0.21 h
same,Cmax,"[2]; male, Sprague-Dawley, rat, plasma, po, 1.05 mg/kg, CD group: healthy rats, DAPA alone, single intragastric dose 1.05 mg/kg, n = 6, mean ± SD, read-out: C max",385 ± 46 ng/mL
same,MRT last,[2]; [9],6.89 ± 0.28 h
same,Tmax,[2]; [10],2.61 ± 0.9 h
same,half-life,[2]; [10],3.96 ± 0.17 h
same,Cmax,"[2]; male, Sprague-Dawley, rat, plasma, po, 1.05 mg/kg, CDA-H group: healthy rats, ARE 900 mg/kg once a day for 7 days + DAPA single dose 1.05 mg/kg on day 7, n=6, mean ± SD, read-out: Cmax",538 ± 123 ng/mL
same,MRT last,[2]; [10],5.04 ± 0.27 h
same,Tmax,[2]; [11],2.5 ± 1.22 h
same,half-life,[2]; [11],3.8 ± 0.22 h
same,MRT last,[2]; [11],5.16 ± 0.36 h
same,Tmax,[2]; [12],2.5 ± 1.22 h
same,half-life,[2]; [12],3.8 ± 0.22 h
same,MRT last,[2]; [12],5.16 ± 0.36 h
same,increase of C max,[3]; patients with mild liver function damage versus healthy subjects,12%
same,increase of C max,[3]; patients with moderate liver function damage versus healthy subjects,12%
same,increase of C max,[3]; patients with severe liver function damage versus healthy subjects,40%
